Measurements published in patent US9975893B2, “Pyrazolo[3,4-c]pyridine derivatives” (CSPC ZHONGQI PHARMACEUTICAL TECHNOLOGY (SHIJIAZHUANG) CO., …, priority 2014, dated 2018).

Legend:
[1] = biological target: T1, Factor Xa (Homo sapiens, UniProt P00742); experiment: Anti-Factor Xa activity assay (chromogenic substrate CS-11(22)); format: biochemical; conditions: ratio of compound IC50 to apixaban IC50; Factor Xa 0.1 U/ml, absorbance at 405 nm, 37° C.
T1 construct: purchased MERK
Procedure: I. Anti-Factor Xa Activity Assay
Substrate: CS-1122 (Hyphen)
Buffer: 50 mM TrisHCl, 150 mM NaCl, PH8.3
100 μL of buffer, 50 μL of different concentrations of compounds (diluted with buffer) and 50 μl of 0.1 U/ml Factor Xa enzyme (diluted with buffer) were added to a 96-well plate. After 15 min of exposure, 50 μL of chromogenic substrate 2.5 mg/ml CS-11 (22) was added. The substrate hydrolysis was monitored by measuring absorbance at 405 nm at 37° C. for up to 30 min (interval: 30 seconds) using a microplate spectrophotometer. IC50 was calculated by bliss.

[2] = tested on: Male SD rats; experiment: Arteriovenous shunt model in rats; format: in vivo, rat; parameters: concentration or dose not given beside the values; conditions: rats given orally 2-4 hours before shunt opened; shunt 15 minutes; thrombus weight, treated vs. mean vehicle
From the text: III. Arteriovenous Shunt Model in Rats
Two 10 cm-long polyethylene tubings (1.50 and 2.88 mm of inner and outer diameter, respectively) linked to a central part (8 cm-long, 2.11 and 3.77 mm of inner and outer diameter, respectively) containing a 6 cm silk thread and filled with heparin (3.125 U/ml) were placed between the right carotid artery and the left jugular vein in rats.
Male SD rats were anesthetized by intraperitoneal injection of 10% chloral hydrate after oral dose, inverted fixation, then the right catotid artery and left vena jugularis externa were isolated, the proximal and distal sutures of catotid artery were tied. The syringe needle were cannulated into the catotid artery and fasted, the other of the tube was cannulated into the right vena jugularis externa. Rats were given orally 2-4 hours before the shunt was opened. Blood flowed from the right carotid artery into the polyethylene tubing and then return to left vena jugularis externa. The shunt was then disconnected 15 minutes later and the silk thread covered with thrombus was immediately withdrawn and weighed. The wet weight of the thrombus was determined. Then the silk thread was dried at 60° C. for 4 h to get the dry weight of the thrombus. The anti-thrombotic effects of these agents were expressed as percentage inhibition of thrombus formation based on the treated vs. the corresponding mean vehicle.

[3] = tested on: Male SD rats; experiment: Rat tail bleeding model; format: in vivo; conditions: rat tail transected 0.5 to 4 hours after administration; prolongation = ratio of treated vs. mean vehicle value; relative to apixaban
Procedure: II Rat Tail Bleeding Model
Male SD rats were allocated randomly and administrated. After the administration, the rats were anesthetized by intraperitoneal injection of 10% chloral hydrate. At the time point of 0.5 to 4 hours (Tmax in PK) after the administration, the tails of anesthetized rats were transected 3 mm from the tip and vertically immersed in saline at 37° C. The time point when the continuous blood flow ceased for >30 s was measured. The prolongation of bleeding time was expressed as a ratio of treated vs. the mean vehicle value. Effects of compounds were determined as described below.

T1 sequence (P00742 235-488 limits assumed): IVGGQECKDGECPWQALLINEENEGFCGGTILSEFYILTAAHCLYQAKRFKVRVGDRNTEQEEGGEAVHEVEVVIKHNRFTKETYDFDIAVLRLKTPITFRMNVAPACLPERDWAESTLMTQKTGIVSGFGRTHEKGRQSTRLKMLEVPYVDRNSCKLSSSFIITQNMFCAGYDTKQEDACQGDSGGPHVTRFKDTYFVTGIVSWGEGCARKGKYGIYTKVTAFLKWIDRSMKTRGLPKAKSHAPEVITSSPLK
T1 sequence (P00742 41-179 partner limits assumed): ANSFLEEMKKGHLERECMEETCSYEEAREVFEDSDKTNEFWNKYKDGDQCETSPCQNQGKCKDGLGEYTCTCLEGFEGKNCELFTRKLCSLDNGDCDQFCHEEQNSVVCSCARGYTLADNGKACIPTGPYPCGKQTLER

| SMILES | IC50(Compound)/IC50(apixaban) [1] | Inhibition of thrombus formation (%) [2] | The Prolongation of bleeding time (compound)/The Prolongation of bleeding time(apixaban) [3] |
| --- | --- | --- | --- |
| CCOc1ccc(-n2nc(C(N)=O)c3c2C(=O)N(c2ccc(-n4cccc(C)c4=O)c(C)c2)CC3)cc1 [A 39, 1-(4-ethoxyphenyl)-6-(3-methyl-4-(3-methyl-2-oxopyridin-1(2H)-yl)phenyl)-7-oxo-4,5,6,7-tetrahydro-1H-pyrazolo[3,4-c]pyridine-3-carboxamide] | <1 | 64.5% | <1 |
| CCOc1ccc(-n2nc(C(N)=O)c3c2C(=O)N(c2ccc(N4CCCCC4=O)c(C)c2)CC3)cc1 [A 31, 1-(4-ethoxyphenyl)-6-(3-methyl-4-(2-oxopiperidin-1-yl)phenyl)-7-oxo-4,5,6,7-tetrahydro-1H-pyrazolo[3,4-c]pyridine-3-carboxamide] | <1 | 71.5% | <1 |
